This passage reports IC50 results from patent US8557816B2, “Aurora kinase modulators and method of use” (Amgen Inc., priority 2007, dated 2013).

One experiment concerns the target T1, AuroraA-TPX2 (Homo sapiens, UniProt O14965).
T1 construct: 20 μL of AuroraA-TPX2 KD GST for a final volume of about 41 μL; GST
T1 sequence (O14965 133-383 limits assumed): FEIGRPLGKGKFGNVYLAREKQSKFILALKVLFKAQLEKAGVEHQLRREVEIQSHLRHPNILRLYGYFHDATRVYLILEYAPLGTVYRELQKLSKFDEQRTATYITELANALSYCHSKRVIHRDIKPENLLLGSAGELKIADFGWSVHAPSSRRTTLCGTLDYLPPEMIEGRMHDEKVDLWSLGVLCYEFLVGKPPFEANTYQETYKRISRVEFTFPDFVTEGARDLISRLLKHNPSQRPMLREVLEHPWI
T1 sequence (Q9ULW0 1-43 partner limits assumed): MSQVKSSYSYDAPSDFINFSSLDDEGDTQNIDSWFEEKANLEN
As to the kind of experiment: AuroraA-TPX2 Homogeneous Time Resolved Fluorescent (HTRF) kinase assay. Format: biochemical. The conditions noted are these: average; read-out: AurA_IC50_IP (uM Avg). Put shortly: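 HTRF read-out (Eu 615 nm to APC 655 nm) of phosphorylated biotin-PLK, detected with 0.02 nM europium anti-phosphoPLK antibody and 0.0005 mg/mL SA-APC after overnight equilibration.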
A general note: Time-resolved FRET reads energy transfer from a long-lived donor to a nearby acceptor.

In another experiment the target is T2, AuroraB (Homo sapiens, UniProt Q96GD4).
T2 construct: 20 μL of AuroraB FL H is for a final volume of 41 μL; His
T2 sequence (Q96GD4 whole entry): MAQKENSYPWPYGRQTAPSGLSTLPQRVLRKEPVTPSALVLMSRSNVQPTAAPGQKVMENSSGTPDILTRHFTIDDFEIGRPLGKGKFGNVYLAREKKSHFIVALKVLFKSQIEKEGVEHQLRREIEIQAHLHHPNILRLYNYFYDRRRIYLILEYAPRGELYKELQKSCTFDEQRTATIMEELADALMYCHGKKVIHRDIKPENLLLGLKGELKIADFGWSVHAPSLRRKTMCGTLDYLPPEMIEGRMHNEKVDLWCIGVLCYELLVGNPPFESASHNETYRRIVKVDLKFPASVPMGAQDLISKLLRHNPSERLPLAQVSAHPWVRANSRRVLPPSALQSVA
As to the kind of experiment: AuroraB Homogeneous Time Resolved Fluorescent (HTRF) kinase assay. In kind it is biochemical. The conditions noted are these: average; read-out: AurB_IC50_IP (uM Avg). The method in brief: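 Read-out is time-resolved FRET between europium anti-phospho-H3 antibody and streptavidin-APC, added in EDTA buffer to stop the reaction and equilibrated about 60 min (ex 320, em 615 and 655 nm). Preceding reaction: ~90 min, full-length enzyme, ATP, 0.1 μM biotin-Histone H3 substrate, Mg/Mn HEPES buffer pH 7.5.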

As to `COc1cnc2c(Nc3cnc(Nc4nnc(-c5ccccc5)c5ccccc45)nc3)ccnc2c1` [Example 36, N^5-(7-Methoxy-1,5-naphthyridin-4-yl)-N^2-(4-phenylphthalazin-1-yl)pyrimidine-2,5-diamine], the IC50 on AuroraA-TPX2 is 0.038 µM; on AuroraB it was 0.004 µM.

For `Clc1ccc(-c2nnc(Nc3ccc(Sc4ccnc5ccoc45)cc3)c3ccccc23)nc1` [Example 391, 4-(5-Chloropyridin-2-yl)-N-(4-(furo[3,2-b]pyridin-7-ylthio)phenyl)phthalazin-1-amine], the IC50 was 0.601 µM on AuroraA-TPX2 and 0.018 µM at AuroraB.

Turning to `c1ccc(-c2nnc(Nc3ccc(Oc4ncnc5nc[nH]c45)cc3)c3ccccc23)cc1` [compound 257, 4-phenyl-N-(4-(7H-purin-6-yloxy)phenyl)-1-phthalazinamine], the IC50 is 0.868 µM on AuroraA-TPX2 and 0.129 µM at AuroraB.

Consider `COc1cc2nccc(Oc3ccc(Nc4nnc(-c5ccc(C)cn5)c5ccccc45)cc3)c2cn1` [compound 103, N-(4-((7-(methyloxy)-1,6-naphthyridin-4-yl)oxy)phenyl)-4-(5-methyl-2-pyridinyl)-1-phthalazinamine], for which the IC50 worked out at 0.035 µM at AuroraA-TPX2 and 0.004 µM on AuroraB.

As to `COc1cnc2c(N(C)c3ccc(Nc4nnc(-c5ccccc5)c5ccccc45)cc3)ccnc2c1` [compound 51, N-methyl-N-(7-(methyloxy)-1,5-naphthyridin-4-yl)-N′-(4-phenyl-1-phthalazinyl)-1,4-benzenediamine], the IC50 at AuroraA-TPX2 was 0.86 µM; on AuroraB, 0.023 µM.

As for `Cc1ccc(-c2nnc(Nc3ccc(Oc4ccnc5ccccc45)c(F)c3)c3ccccc23)cc1` [compound 161, N-(3-fluoro-4-(4-quinolinyloxy)phenyl)-4-(4-methylphenyl)-1-phthalazinamine], the IC50 at AuroraA-TPX2 stood at 0.027 µM; at AuroraB, 0.005 µM.

In the case of `COc1ccc(-c2nnc(Nc3ccc(Oc4ccnc5cc(OC)cnc45)cc3)c3ccccc23)cc1` [Example 37, N-(4-(7-methoxy-1,5-naphthyridin-4-yloxy)phenyl)-4-(4-methoxyphenyl)phthalazin-1-amine], the IC50 on AuroraA-TPX2 is 0.02 µM; on AuroraB, 0.004 µM.

Take `COc1cc2nccc(Oc3ccc(Nc4nnc(-c5ccccc5)c5ccccc45)cc3)c2cc1C#N` [Example 392, 7-Methoxy-4-(4-(4-phenylphthalazin-1-ylamino)phenoxy)quinoline-6-carbonitrile]: the values for the IC50 on AuroraA-TPX2 and on AuroraB were 0.159 µM and 0.26 µM, respectively.

In the case of `COc1ccc2c(Oc3ccc(Nc4nnc(-c5ccccc5)c5ccccc45)cc3)ccnc2c1` [compound 91, N-(4-((7-(methyloxy)-4-quinolinyl)oxy)phenyl)-4-phenyl-1-phthalazinamine], the IC50 at AuroraA-TPX2 was 0.054 µM; on AuroraB it was 0.012 µM.

Take `Cc1csc(-c2nnc(Nc3ccc(Sc4ccnc5ccc(=O)[nH]c45)cc3)c3ccccc23)c1` [compound 589]: the figures for the IC50 at AuroraA-TPX2 and at AuroraB were 0.019 µM and 0.008 µM, respectively.

Turning to `c1ccc2c(-c3ccc4c(c3)CCO4)nnc(Nc3ccc(Oc4ccnc5ccsc45)cc3)c2c1` [compound 272, 4-(2,3-dihydrobenzofuran-5-yl)-N-(4-(thieno[3,2-b]pyridin-7-yloxy)phenyl)phthalazin-1-amine], the IC50 at AuroraA-TPX2 was found to be 0.033 µM; at AuroraB, 0.001 µM.

For `COc1cnc2c(Oc3ccc(Nc4nnc(-c5cc6ccccc6n5C)c5ccccc45)cc3)ccnc2c1` [compound 143, 4-(1-methyl-1H-indol-2-yl)-N-(4-((7-(methyloxy)-1,5-naphthyridin-4-yl)oxy)phenyl)-1-phthalazinamine], the IC50 on AuroraA-TPX2 is 0.012 µM; at AuroraB, 0.009 µM.

For `c1cnc2c(Sc3ccc(Nc4nnc(-c5ccc6occc6c5)c5ccccc45)cc3)ccnc2c1` [compound 446], the IC50 at AuroraA-TPX2 was found to be 0.035 µM; at AuroraB, 0.011 µM.

`Cc1ccc(-c2nnc(Nc3ccc(Sc4ccnc5ccoc45)cc3)c3ccccc23)nc1` [compound 482]: the IC50 was 0.415 µM at AuroraA-TPX2 and 0.004 µM at AuroraB.

Consider `O=C(c1cc2nccc(Sc3ccc(Nc4nnc(-c5ccc(Cl)cc5)c5ccccc45)cc3)c2s1)N1CCOCC1` [compound 314, (7-(4-(4-(4-chlorophenyl)phthalazin-1-ylamino)phenylthio)thieno[3,2-b]pyridin-2-yl)(morpholino)methanone], for which the IC50 on AuroraA-TPX2 came out at 0.058 µM; on AuroraB it was 0.057 µM.

Regarding `N#Cc1cc2nccc(Sc3ccc(Nc4nnc(-c5ccc(Cl)cn5)c5ccccc45)cc3)c2s1` [compound 460], the IC50 at AuroraA-TPX2 amounted to 0.045 µM; at AuroraB, 0.015 µM.

For `COc1cnc2c(Sc3ccc(Nc4nnc(-c5ccc(C)nc5)c5ccccc45)cc3)ccnc2c1` [compound 588], the IC50 on AuroraA-TPX2 came to 0.051 µM; at AuroraB it was 0.017 µM.

Consider `COc1cnc2c(Sc3ccc(Nc4nnc(N5CCC(F)CC5)c5ccccc45)cc3)ccnc2c1` [compound 557], for which the IC50 at AuroraA-TPX2 turned out to be 0.161 µM; at AuroraB it was 0.059 µM.

Turning to `COc1cnc2c(Oc3ccc(Nc4nnc(-c5cccc(C)n5)c5ccccc45)cn3)ccnc2c1` [compound 128, N-(6-((7-(methyloxy)-1,5-naphthyridin-4-yl)oxy)-3-pyridinyl)-4-(6-methyl-2-pyridinyl)-1-phthalazinamine], the IC50 at AuroraA-TPX2 worked out at 0.099 µM; on AuroraB it was 0.018 µM.

For the molecule `COc1ccccc1-c1nnc(Nc2ccc(Oc3ccnc4cc(C#N)ccc34)cc2)c2ccccc12` [compound 119, 4-((4-((4-(2-(methyloxy)phenyl)-1-phthalazinyl)amino)phenyl)oxy)-7-quinolinecarbonitrile], the figures for the IC50 on AuroraA-TPX2 and at AuroraB were 0.175 µM and 0.007 µM, respectively.

Consider `COc1cnc2c(Oc3ccc(Nc4nnc(-c5ccc6c(c5)OCCO6)c5ccccc45)cc3)ccnc2c1` [compound 166, 4-(2,3-dihydro-1,4-benzodioxin-6-yl)-N-(4-((7-(methyloxy)-1,5-naphthyridin-4-yl)oxy)phenyl)-1-phthalazinamine], for which the IC50 at AuroraA-TPX2 was found to be 0.023 µM; at AuroraB, 0.006 µM.

For the molecule `COC1CCN(c2nnc(Nc3ccc(Sc4ccnc5cc(C#N)ccc45)cc3)c3ccccc23)CC1` [compound 534], the results for the IC50 at AuroraA-TPX2 and at AuroraB were 0.035 µM and 0.02 µM, respectively.

Take `COc1cnc2c(Sc3ccc(Nc4nnc(N5CCCC5)c5ccccc45)cc3)ccnc2c1` [compound 521]: the IC50 turned out to be 0.112 µM on AuroraA-TPX2 and 0.025 µM on AuroraB.

Consider `COc1cnc2c(Oc3ccc(Nc4nnc(-c5ccc([S+](C)[O-])cc5)c5ccccc45)cc3)ccnc2c1` (stereo not shown) [compound 262, N-(4-((7-(methyloxy)-1,5-naphthyridin-4-yl)oxy)phenyl)-4-(4-(methylsulfinyl)phenyl)-1-phthalazinamine], for which the results for the IC50 at AuroraA-TPX2 and at AuroraB were 0.102 µM and 0.006 µM, respectively.

As for `COc1cnc2c(Oc3ccc(Nc4nnc(-c5ccc(Cl)cn5)c5ccccc45)cc3)ccnc2c1` [compound 228, 4-(5-chloro-2-pyridinyl)-N-(4-((7-(methyloxy)-1,5-naphthyridin-4-yl)oxy)phenyl)-1-phthalazinamine], the results for the IC50 at AuroraA-TPX2 and at AuroraB were 0.034 µM and 0.004 µM, respectively.

As for `Cc1ccc(-c2nnc(Nc3ccc(Oc4ccnc5cccnc45)cc3)c3ccccc23)cc1N` [compound 416], the IC50 on AuroraA-TPX2 was found to be 0.098 µM; at AuroraB, 0.003 µM.
